Measured values as given in US20220381657A1, “METHOD FOR PREPARING BIOLOGICAL MATERIAL HAVING EXCELLENT LIGHT-TRANSMITTING PROPERTY” (RIKEN, priority 2016, published 2022).
Like-named read-outs stand apart in the source and are kept apart here.

Tests used:
[1] = test system: fixed brain tissue suspension; test: 1st delipidation assay: solubilization of fixed brain tissue suspension, turbidity at 600 nm; parameters: species or system mice
Description: Specifically, brains taken out of mice were sheared with a utility knife and then were disrupted by ultrasonication. To each of the resultant suspensions, an equal volume of 8% PFA solution was added to perform fixation at 4° C. for 1 hour. The resultant mixture was centrifuged to remove the supernatant, and the fixed brain tissue was washed with PBS for 3 times. PBS was added so as to obtain 2 mL of a fixed brain tissue suspension per brain. The fixed brain tissue suspension was diluted by 3.5 folds. To 20 μL of the resultant suspension, 130 μL of each 10 wt % chemical was added and was shaken at 37° C. overnight. Thus obtained mixed solutions were subjected to absorbance (turbidity) measurement at 600 nm. It is expected that a chemical solution which reduces the turbidity of a fixed brain suspension allows reducing light scattering by solubilizing lipids, which act as a scattering factor, in the brain tissue.

[2] = for OD400: Table 1; for 400 nm: OD at 400 nm of the chemical
bovine coagulated blood = test: Decoloring screening: heme eluted from bovine coagulated blood (OD420-OD700); conditions: decolorization; for 700 nm calibrated 420 nm Average: OD420 calibrated by OD700; for integrated value 500-700 nm Average: integrated absorbance 500-700 nm
Description: A high-throughput screening system for evaluating the decoloring ability of various compounds was constructed. The screening system involved adding an aqueous solution of each compound to bovine coagulated blood and then measuring the absorbance of heme collected in the supernatant.
Specifically, to bovine blood, an equal amount of 8% PFA solution was added, and reacted at 4° C. overnight. The mixed liquid was centrifuged at 1500×g for 5 minutes, and the supernatant containing PFA was discarded. Then, the same amount of PBS as the original volume of blood was added to prepare a coagulated blood sample. To 150 μL of 10 wt % aqueous solution of each compound, 50 μL of the coagulated blood sample was added, and reacted at 37° C. overnight. The reaction solution was centrifuged at 1500×g for 5 minutes, and then 100 μL of the supernatant was added to a plate so as to be subjected to absorbance measurement. A sample which is suspended in water instead of being dissolved in the water has a weak decoloring effect, but none the less has a high absorbance value. […]

[3] = Table 1, 10 wt % chemical, fixed mouse brain suspension, 37° C. overnight, PBS = 1.000

Molecule | pH (Table 1) | OD400 [2] | pH ([…]) | 400 nm [2] | 1st delipidation assay Relative OD600 [1, 3] | 700 nm calibrated 420 nm Average (bovine coagulated blood) | integrated value 500-700 nm Average (bovine coagulated blood) | Fluorescence quench Average (Serius; relative fluorescence) | other results
Polyethylene glycol mono-4-octylphenyl ether [#1103] |  |  |  |  |  |  |  |  | 1st delipidation assay Relative OD600 [1]: 0.184
Isopropylamine [#1006] |  |  |  |  | 0.318 |  |  |  | 
CC(O)CN(CCN(CC(C)O)CC(C)O)CC(C)O (stereo not drawn) [Quadrol ®, reference compound] | 12.4 | 0.048 |  |  | 0.569 |  |  |  | 
Triton ™ X-100 [reference compound] |  |  |  |  | 0.240 |  |  |  | 
C[C@H](CCC(=O)O)[C@H]1CC[C@H]2[C@@H]3[C@H](O)C[C@@H]4C[C@H](O)CC[C@]4(C)[C@H]3C[C@H](O)[C@]12C [#0566, Sodium Cholate] |  |  |  |  |  |  |  |  | 1st delipidation assay Relative OD600 [1]: 0.254
Isobutylamine [#1043] |  |  |  |  | 0.251 |  |  |  | 
Dodecene-1 LAS [#0672] |  |  |  |  |  | 1.45 | 1.41 |  | Fluorescence quench Average (Serius): 1.08; 1st delipidation assay Relative OD600 [1]: 0.152
CC(C)(C)N(CCO)CCO [#0390, N-tert- Butyldiethanolamine] | 12.7 | 0.052 |  |  | 0.318 |  |  |  | 
C1CCNCC1 [#1097, Piperidine] |  |  |  |  | 0.166 |  |  |  | 
NCCCCN [#0783] |  |  | 14.0 | 0.05 |  | 2.21 | 1.42 | 0.60 | 
CCCCCCCCCCCCOS(=O)(=O)[O-].[Li+] [#1310, Lithium dodecyl sulfate] |  |  |  |  | 0.155 |  |  |  | 
CCCCNCCN [#0422, N-Butylethylenediamine] | 12.7 | 0.05 |  |  | 0.307 |  |  |  | 
CN1C2CCC1CC(O)C2 (stereo not drawn) [#1462, Tropine] |  |  |  |  | 0.292 |  |  |  | 
CCCCCCCCCCCCOS(=O)(=O)[O-].[Na+] [#1035, Sodium dodecyl sulfate] | 6.3 | 0.048 | 6.3 | 0.048 |  | 1.28 | 1.32 | 1.15 | 
OCC(O)c1ccccc1 (stereo not drawn) [#1074, 1-Phenylethane-1,2-diol] | 9.5 | 0.05 |  |  | 0.336 |  |  |  | 
CCCCCCCCCCCC[N+](C)(C)C.[Cl-] [#1021, Dodecyltrimethyl- ammonium chloride] |  |  |  |  | 0.194 | 1.96 | 1.70 |  | Fluorescence quench Average (Serius): 1.11
c1cnc(N2CCNCC2)nc1 [#1167, 1-(2-Pyrimidyl) piperazine] |  |  | 12.5 | 0.084 |  | 1.39 | 1.09 | 0.01 | 
N.O=C(O)C(F)(F)C(F)(F)C(F)(F)C(F)(F)C(F)(F)C(F)(F)C(F)(F)F [#1162, Ammonium pentadecafluorooctanoate] |  |  |  |  | 0.318 |  |  |  | 
C[N+](C)(C)Cc1ccccc1.[OH-] [#0387, Benzyltrimethyl- ammonium Hydroxide] | 13.8 | 0.054 | 13.8 | 0.054 |  | 3.14 | 2.56 | 0.00 | 
Nonidet P-40 [#1511] |  |  |  |  |  |  |  |  | 1st delipidation assay Relative OD600 [1]: 0.193

The next lines start with results.

pH (Table 1) | OD400 [2] | pH ([…]) | 400 nm [2] | Molecule | 1st delipidation assay Relative OD600 [1, 3] | 700 nm calibrated 420 nm Average (bovine coagulated blood) | integrated value 500-700 nm Average (bovine coagulated blood) | Fluorescence quench Average (Serius; relative fluorescence) | other results
5.9 | 0.046 |  |  | CCCCCCCCCCS(=O)(=O)[O-].[Na+] [#0625, Sodium 1-decanesulfonate] | 0.325 |  |  |  | 
5.9 | 0.056 |  |  | CCCCCCCCCCCS(=O)(=O)[O-].[Na+] [#1419, Sodium 1-undecanesulfonate] | 0.124 |  |  |  | 
9.6 | 0.055 |  |  | CC(C)CCN [#1038, Isoamylamine] | 0.247 |  |  |  | 
5.7 | 0.065 |  |  | Tween ® 80 [#1460] | 0.095 |  |  |  | 
7.0 | 0.047 |  |  | CCCCCCCCCC(=O)N(C)CC(=O)[O-].[Na+] [#0703, N-Decanoylsarcosine sodium salt] | 0.223 |  |  |  | 
 |  | 2.9 | 0.055 | OCCCCCBr [#1367] |  | 1.48 | 0.06 | −0.01 | 
 |  | 12.3 | 0.06 | NCCCCO [#0006] |  | 1.22 | 0.82 | 0.64 | 
6.8 | 0.047 |  |  | CCCCCCCCCS(=O)(=O)[O-].[Na+] [#0870, Sodium 1-nonanesulfonate] | 0.247 |  |  |  | 
 |  | 12.9 | 0.049 | NCC1CCOCC1 [#0467, 4-Aminomethyl-tetrahydropyran] |  | 1.52 | 1.13 | 0.65 | 
 |  | 12.8 | 0.054 | NCC(O)CN [#1062] |  | 1.13 | 0.80 | 0.67 | 
7.9 | 0.054 | 7.9 | 0.054 | C[C@H](CCC(=O)[O-])[C@H]1CC[C@H]2[C@@H]3CC[C@@H]4C[C@H](O)CC[C@]4(C)[C@H]3C[C@H](O)[C@]12C.[Na+] [#1507, Sodium deoxycholate] |  | 1.27 | 1.03 | 1.03 | 
 |  | 13.6 | 0.051 | CCN(CC)CCN [#0779, N,N-Diethyl-ethylenediamine] |  | 1.39 | 0.81 | 0.70 | 
 |  | 13.6 | 0.049 | CCC(N)CCN (stereo not drawn) [#0678] |  | 1.71 | 1.15 | 0.60 | 
12.9 | 0.08 | 12.9 | 0.08 | CC(CN)CCCN (stereo not drawn) [#1267, 2-Methyl-1,5-diaminopentane] |  | 1.48 | 1.09 | 0.51 | 
10.5 | 0.085 |  |  | CN1CCCC1 [#1295, 1-Methylpyrrolidine] | 0.325 |  |  |  | 
 |  | 8.4 | 0.055 | CCCCCCCCCCCC[N+](C)(C)CCCS(=O)(=O)[O-] [#0694] |  | 2.24 | 2.53 | 1.09 | 
 |  | 10.4 | 0.052 | NC(=O)c1cccnc1 [#0855, nicotinamide] |  | 2.63 | 2.45 | 0.75 | 
